Results taken from patent publication EP2173323B1, “STIMULATING GEL” (LRC Products Limited, priority 2007, dated 2009).

Assays:
[1] = Cooling strength of coolants relative to menthol; details: menthol = 100
[2] = Penetration of coolants across body surfaces
Source text: By "penetration enhancer" we mean any compound which aids penetration or absorption of coolants (or other active ingredients) into and through body surfaces, for example, compounds which aid penetration of coolants into and through the skin and mucosal membranes. Preferably, penetration enhancers as used herein aid penetration and/or absorption of coolants which are cyclic carboxamides, such as N-cthyl-p-menthane-3-carboxamide, and/or aid penetration and/or absorption of (-)-isopulegol across body surfaces. Such penetration enhancement may potentiate the action of coolants, or other active ingredients. Any suitable penetration enhancer may be used. Preferred penetration enhancers include ethoxy diglycol, limonene, isopropyl palmitate, sodium lauryl sulphate and L-arginine. Optionally, the penetration enhancer may also act as a vasodilator.
Optionally, the compositions further comprise a penetration enhancer. The penetration enhancer can be any compound which aids penetration or absorption of the cyclic carboxamide and/or of isopulegol into and through body surfaces, for example, compounds which aid penetration into and through the skin and mucosal membranes. Any suitable penetration enhancer may be used. Preferred penetration enhancers include ethoxy diglycol, limonene; isopropyl palmitate; and sodium lauryl sulphate. […]

[3] = Crystallisation / clouding at low temperatures; format: physicochemical
[4] = Volatility compared with menthol; format: physicochemical

| SMILES | Cooling strength relative to menthol [1] | further results |
| --- | --- | --- |
| C=C(C)C1CCC(C)CC1O (stereo not drawn) [Isopulegol, 2-isopropenyl-5-methyl-cyclohexanol] | 25 |  |
| N=C(N)NCCC[C@H](N)C(=O)O [L-arginine] |  | penetration enhancement of coolants (cyclic carboxamides and isopulegol) [2]: aids penetration of coolants |
| CC1CCC(C(C)C)C(O)C1 (stereo not drawn) [Menthol] | 100 |  |
| CC1CCC(C(C)C)C2(C1)OCC(CO)O2 (stereo not drawn) [Menthone glycerine acetal] | 41 |  |
| CC1CCC(C(C)C)C(OC(=O)C(C)O)C1 (stereo not drawn) [Menthyl lactate] | 43 |  |
| CCNC(=O)C1CC(C)CCC1C(C)C (stereo not drawn) [WS-3, N-ethyl-p-menthane-3-carboxamide] | 150 | crystallisation at low temperatures [3]: does not crystallise at low temperatures; volatility [4]: lower volatility than menthol |
| CNC(=O)C(C)(C(C)C)C(C)C [WS-23] | 75 |  |
